In US20260285853A1, “COMPOUNDS AND METHODS FOR MODULATING SPLICING” (REMIX THERAPEUTICS INC., priority 2023, published 2026):
Structures can show the parent of a compound that is named as a salt. Where two headings read alike, the source gives them in different places.

Legend:
Assay type in all cases: cell-based
[1] = system: SH-SY5Y (human neuroblastoma) cells; assay: Cell viability, Cell Titer Glo 2.0 assay; conditions: read-out: Viability SHSY5Y.3 GI50
Procedure, shortened: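 Toxicity screen in SH-SY5Y cells. Compounds were serially diluted in DMSO and then in medium, giving 0.1% DMSO final. Viability was read with CellTiter-Glo 2.0 after 72 h at 37 °C, 5% CO2, against medium-only blank wells.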

[2] = system: MYB mRNA; assay: Splicing RT-qPCR assay (THP), Table 2A
[3] = system: HTT mRNA; assay: Gene panel canonical junction qPCR assay, decrease in CJ mRNA, Table 3
Procedure, shortened: (§1)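 A673 (DMEM, 10% FBS, 15,000 cells/well) or K562 (IMDM, 10% FBS) cells treated 24 h at 37 °C with 11-point 3-fold dilutions, top 10 uM, DMSO ≤0.25%. Canonical exon-exon junction mRNA measured by RT-qPCR, normalized to GAPDH, GUSB or PPIA and DMSO (ΔΔCt); IC50 from 4-parameter logistic fit.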

[4] = system: MYB mRNA; assay: as above
Procedure, shortened: as §1

[5] = system: HTT mRNA; assay: Splicing RT-qPCR assay (THP), Table 2A
[6] = Table 2A (THP), AJ mRNA increase, read-out: MYB AJ (increase in alternative junction mRNA, AC50)
[7] = Table 2A (THP), CJ mRNA decrease, read-out: MYB CJ (decrease in canonical junction mRNA, IC50)
[8] = decrease in canonical junction (CJ) mRNA, gene panel qPCR, Table 3
[9] = Table 2A (THP), AJ mRNA increase, read-out: HTT AJ (increase in alternative junction mRNA, AC50)
[10] = Table 2A (THP), CJ mRNA decrease, read-out: HTT CJ (decrease in canonical junction mRNA, IC50)
[11] = Table 2A, THP, MYB alternative junction (AJ) mRNA, read-out: MYB AJ (AC50, increase in alternative junction mRNA)
[12] = Table 2A, THP, MYB canonical junction (CJ) mRNA, read-out: MYB CJ (IC50, decrease in canonical junction mRNA)
[13] = decrease in CJ mRNA levels, canonical junction qPCR, gene panel
[14] = Table 2A, THP, HTT alternative junction (AJ) mRNA, read-out: HTT AJ (AC50, increase in alternative junction mRNA)
[15] = Table 2A, THP, HTT canonical junction (CJ) mRNA, read-out: HTT CJ (IC50, decrease in canonical junction mRNA)

Row | GI50 [1] | IC50 [2, 7] | IC50 [3, 8] | IC50 [4, 8] | IC50 [5, 10] | IC50 [2, 12] | IC50 [3, 13] | IC50 [4, 13] | IC50 [5, 15] | SMILES | AC50 [2, 6] | AC50 [5, 9] | AC50 [2, 11] | AC50 [5, 14]
1 | 1 to 10 µM | > 10 µM | > 10 µM | > 10 µM | > 10 µM | – | – | – | – | CCNC1CC2(C1)CN(c1ccc(C(=O)Nc3cn4cc(C)nc(C)c4n3)c3nn(C)cc13)C2 [Compound 576] | > 10 µM | > 10 µM | – | –
2 | 0.1 to 1 µM | – | – | – | – | < 0.1 µM | 0.1 to 1 µM | < 0.1 µM | 0.1 to 1 µM | CN[C@@H]1CCN(c2ccc(C(=O)Nc3cc(F)c4nn(C)cc4c3)c3nc(OC)sc23)C1 [Compound 747, N-(7-fluoro-2-methyl-indazol-5-yl)-2-methoxy-7-[(3R)-3-(methylamino)pyrrolidin-1-yl]-1,3-benzothiazole-4-carboxamide] | – | – | < 0.1 µM | 0.1 to 1 µM
3 | > 10 µM | – | – | – | – | > 10 µM | > 10 µM | > 10 µM | > 10 µM | Cn1cc2cc(NC(=O)c3ccc(N4CCC(NC5CC5)CC4)c4cn(C)nc34)cc(CN3CCCS3(=O)=O)c2n1 [Compound 818, 4-(4-(cyclopropylamino)piperidin-1-yl)-N-(7-((1,1-dioxidoisothiazolidin-2-yl)methyl)-2-methyl-2H-indazol-5-yl)-2-methyl-2H-indazole-7-carboxamide hydrochloride] | – | – | > 10 µM | > 10 µM
4 | 1 to 10 µM | – | – | – | – | 1 to 10 µM | 1 to 10 µM | 1 to 10 µM | 1 to 10 µM | CCNC1CCN(c2ccc(C(=O)Nc3cc(CNS(C)(=O)=O)c4nn(C)cc4c3)c3nn(C)cc23)CC1 [Compound 798, 4-[4-(ethylamino)-1-piperidyl]-N-[7-(methanesulfonamidomethyl)-2-methyl-indazol-5-yl]-2-methyl-indazole-7-carboxamide] | – | – | 1 to 10 µM | 1 to 10 µM
5 | > 10 µM | – | – | – | – | > 10 µM | > 10 µM | > 10 µM | > 10 µM | CCNC1CCN(c2ccc(C(=O)Nc3cc(CCc4nnc[nH]4)c4nn(C)cc4c3)c3nn(C)cc23)CC1 [Compound 878] | – | – | > 10 µM | > 10 µM
6 | 0.1 to 1 µM | < 0.1 µM | 1 to 10 µM | < 0.1 µM | 1 to 10 µM | – | – | – | – | Cc1cn2cc(NC(=O)c3c(F)cc(N4CCC(NC5CC5)CC4)c4cn(C)nc34)nc(Oc3ccccn3)c2n1 [Compound 408, 4-[4-(cyclopropylamino)-1-piperidy1]-6-fluoro-2-methyl-N-[2-methyl-8-(2-pyridyloxy)imidazo[1,2-a]-pyrazin-6-yl]indazole-7-carboxamide] | < 0.1 µM | 0.1 to 1 µM | – | –
7 | 1 to 10 µM | – | – | – | – | 0.1 to 1 µM | > 10 µM | 0.1 to 1 µM | > 10 µM | C=CCNC1CCN(c2cc(O)c(C(=O)Nc3cc(CNS(C)(=O)=O)c4nn(C)cc4c3)c3nn(C)cc23)CC1 [Compound 854] | – | – | 0.1 to 1 µM | 1 to 10 µM
8 | 0.1 to 1 µM | – | – | – | – | 0.1 to 1 µM | > 10 µM | 0.1 to 1 µM | > 10 µM | Cc1cc2c(N3CCC(NC4CC4)CC3)ccc(C(=O)Nc3cc(CNS(C)(=O)=O)c4nn(C)cc4c3)n2n1 [Compound 822] | – | – | 0.1 to 1 µM | > 10 µM
9 | 1 to 10 µM | – | – | – | – | > 10 µM | > 10 µM | > 10 µM | > 10 µM | Cc1cn2cc(NC(=O)c3ccc(N4CCC(NC5CC5)CC4)c4cn(C)nc34)nc2c(Cc2cnc(Cl)s2)n1 [Compound 781] | – | – | > 10 µM | > 10 µM

Continued, molecule first:

Row | SMILES | GI50 [1] | IC50 [2, 7] | IC50 [3, 8] | IC50 [4, 8] | IC50 [5, 10] | IC50 [2, 12] | IC50 [3, 13] | IC50 [4, 13] | IC50 [5, 15] | AC50 [2, 6] | AC50 [5, 9] | AC50 [2, 11] | AC50 [5, 14]
10 | CCNC1CCN(c2ccc(C(=O)Nc3cn4cc(C)nc(C5CC5)c4n3)c3nn(C)cc23)CC1 [Compound 312, N-(8-cyclopropyl-6-methyl-imidazo[1,2-a]pyrazin-2-yl)-4-[4-(ethylamino)-1-piperidyl]-2-methyl-indazole-7-carboxamide] | 1 to 10 µM | 1 to 10 µM | 1 to 10 µM | 1 to 10 µM | 1 to 10 µM | – | – | – | – | 1 to 10 µM | 1 to 10 µM | – | –
11 | COc1cc2nn(C)cc2cc1NC(=O)c1c(F)cc(N2CCC(NC3CC3)CC2)c2nc(C)sc12 [Compound 661, 4-[4-(cyclopropyl-amino)-1-piperidyl]-6-fluoro-N-(6-methoxy-2-methyl-indazol-5-yl)-2-methyl-1,3-benzothiazole-7-carboxamide] | 1 to 10 µM | – | – | – | – | 1 to 10 µM | 1 to 10 µM | 1 to 10 µM | 1 to 10 µM | – | – | 1 to 10 µM | 1 to 10 µM
12 | COc1c(NC(=O)c2c(F)cc(N3CCC(NC4CC4)CC3)c3cn(C)nc23)cc2cn(C)nc2c1F [Compound 405, 4-[4-(cyclopropylamino)-1-piperidyl]-6-fluoro-N-(7-fluoro-6-methoxy-2-methyl-indazol-5-yl)-2-methyl-indazole-7-carboxamide] | < 0.1 µM | < 0.1 µM | 0.1 to 1 µM | < 0.1 µM | 0.1 to 1 µM | – | – | – | – | < 0.1 µM | 0.1 to 1 µM | – | –
13 | Cc1cn2cc(NC(=O)c3ccc(N4CCC(NC5CC5)CC4)c4cn(C)nc34)c(OC(C)C)c2c(C)n1 [Compound 569, 4-[4-(cyclopropylamino)-1-piperidyl]-N-(8-isopropoxy-1,3-dimethyl-pyrrolo[1,2-a]pyrazin-7-yl)-2-methyl-indazole-7-carboxamide] | 1 to 10 µM | > 10 µM | > 10 µM | > 10 µM | > 10 µM | – | – | – | – | > 10 µM | > 10 µM | – | –
14 | COc1nc2c(C(=O)Nc3cn4cc(C)nc(C)c4n3)ccc(N3CCC(NC4CC4)CC3)c2s1 [Compound 667, 7-(4-(cyclopropylamino)-piperidin-1-yl)-N-(6,8-dimethylimidazo[1,2-a]pyrazin-2-yl)-2-methoxy-benzo[d]thiazole-4-carboxamide 2,2,2-trifluoroacetate] | 1 to 10 µM | – | – | – | – | > 10 µM | > 10 µM | > 10 µM | > 10 µM | – | – | 1 to 10 µM | > 10 µM
15 | CC(=O)Nc1nc2c(C(=O)Nc3cc(F)c4nn(C)cc4c3)ccc(N3C[C@H](C)N[C@@H](C)C3)c2s1 [Compound 724, 2-acetamido-7-[(3S,5S)-3,5-dimethylpiperazin-1-yl]-N-(7-fluoro-2-methyl-indazol-5-yl)-1,3-benzothiazole-4-carboxamide] | 1 to 10 µM | – | – | – | – | < 0.1 µM | 0.1 to 1 µM | < 0.1 µM | 0.1 to 1 µM | – | – | < 0.1 µM | 1 to 10 µM
16 | Cn1cc2cc(NC(=O)c3ccc(N4CCC(NC5CC5)CC4)c4cn(C)nc34)c(O)c(CNS(C)(=O)=O)c2n1 [Compound 867] | > 10 µM | – | – | – | – | > 10 µM | > 10 µM | > 10 µM | > 10 µM | – | – | > 10 µM | > 10 µM
17 | CCNC1CCN(c2ccc(C(=O)Nc3cn4cc(C)nc(CC(N)=O)c4n3)c3nn(C)cc23)CC1 [Compound 857] | > 10 µM | – | – | – | – | > 10 µM | > 10 µM | > 10 µM | > 10 µM | – | – | > 10 µM | > 10 µM
18 | CCNC1CCN(c2ccc(C(=O)Nc3cc(CC(N)=O)c4nn(C)cc4c3)c3nn(C)cc23)CC1 [Compound 873, N-[7-(2-amino-2-oxo-ethyl)-2-methyl-indazol-5-yl]-4-[4-(ethylamino)-1-piperidyl]-2-methyl-indazole-7-carboxamide] | > 10 µM | – | – | – | – | > 10 µM | > 10 µM | > 10 µM | > 10 µM | – | – | > 10 µM | > 10 µM
19 | COc1cc2nc(C)cn2cc1NC(=O)c1c(F)cc(N2CCC(NC3CC3)CC2)c2cn(C)nc12 [Compound 395, 4-[4-(cyclopropylamino)-1-piperidyl]-6-fluoro-N-(7-methoxy-2-methyl-imidazo[1,2-a]pyridin-6-yl)-2-methyl-indazole-7-carboxamide] | 0.1 to 1 µM | 0.1 to 1 µM | > 10 µM | 0.1 to 1 µM | > 10 µM | – | – | – | – | < 0.1 µM | > 10 µM | – | –
20 | Cc1nc(CN)cn2cc(NC(=O)c3c(F)cc(N4CCC(NC5CC5)CC4)c4cn(C)nc34)nc12 [Compound 401, N-[6-(aminomethyl)-8-methyl-imidazo[1,2-a]pyrazin-2-yl]-4-[4-(cyclopropylamino)-1-piperidyl]-6-fluoro-2-methyl-indazole-7-carboxamide] | > 10 µM | 1 to 10 µM | > 10 µM | 1 to 10 µM | > 10 µM | – | – | – | – | 1 to 10 µM | > 10 µM | – | –
21 | Cc1cn2cc(NC(=O)c3ccc(N4CCC(N(C)C5CC5)CC4)c4cn(C)nc34)nc2c(CNS(C)(=O)=O)n1 [Compound 777] | 1 to 10 µM | – | – | – | – | 1 to 10 µM | 1 to 10 µM | 1 to 10 µM | 1 to 10 µM | – | – | 1 to 10 µM | 1 to 10 µM
